# Like-named read-outs stand apart in the source and are kept apart here.
# Tests used:
# [1] = tested on: A-549 lung epithelial cells; experiment: IC50 in A-549 lung epithelial cells; type: cell-based; details: Homo sapiens, A549
# Experimental: (§1) Poly(trimethylene dipyridine-alt-5-oxanonane) having a molecular weight of 0.5 to 1 kDa was tested in A-549 lung epithelial cells to determine its IC50 value in comparison with tobramycin, a conventional antibiotic. In addition, the minimum inhibitory concentrations for the two compounds were determined in vitro for a number of bacterial strains and species. The results are as shown below, where all concentrations are expressed as μg/mL: […]
# B. cepacia = experiment: Minimum inhibitory concentration in vitro (Example 26); type: cell-based; details: Burkholderia cepacia
# Experimental: as §1
# P. aeruginosa [2] = experiment: as above; type: cell-based; details: Pseudomonas aeruginosa
# Experimental: as §1
# S. aureus = experiment: as above; type: cell-based; details: Staphylococcus aureus
# Experimental: as §1
# S. maltophilia = experiment: as above; type: cell-based; details: Stenotrophomonas maltophilia
# Experimental: as §1
# P. aeruginosa [3] = details: within 11 passages, published studies; cited from earlier work
# MRSA = details: over 15 passages, published studies; cited from earlier work
Compound,IC50 [1] [µg/mL],MIC (B. cepacia) [µg/mL],"MIC (P. aeruginosa [2]; strain G38, read-out: MIC P. aeruginosa G38) [µg/mL]","MIC (P. aeruginosa [2]; strain PA01, read-out: MIC P. aeruginosa PA01) [µg/mL]",MIC (S. aureus) [µg/mL],MIC (S. maltophilia) [µg/mL],Rise of the MIC (P. aeruginosa [3]) [fold],Rise of the MIC (MRSA) [fold]
NC[C@H]1O[C@H](O[C@H]2[C@H](O)[C@@H](O[C@H]3O[C@H](CO)[C@@H](O)[C@H](N)[C@H]3O)[C@H](N)C[C@@H]2N)[C@H](N)C[C@@H]1O [Tobramycin],5000,> 50,0.39,0.39,0.195,25,–,–
CCn1cc(C(=O)O)c(=O)c2cc(F)c(N3CCNCC3)cc21 [norfloxacin],–,–,–,–,–,–,10,85
gentamicin,–,–,–,–,–,–,190,–

# Reference: patent publication US20060002888A1, “Polyionenes for treating infections associated with cystic fibrosis” (Genzyme Corporation, priority 2002, published 2006)
